From EP0340171A2, “Cyclodextrin complexes of 5-aminohexahydropyrimidine compounds” (WARNER-LAMBERT COMPANY, priority 1988, dated 1989)
“Also recorded” adds a separate entry of the source.

Key:
[1] = solubility in deionized water; type: physicochemical
Experimental: When complexed with beta-cyclodextrin the solubility increases to about 10 mg hexetidine (contained in about 43 mg of complex) in about 10 ml of water -- without the addition of any alcohol or any surfactant. This is an increase from about 0 to about 0.1% w/v in solubility. The complex, 43 mg, was dissolved in 10 ml of deionized water at about 50°C using vortexing. The complex, assayed by UV to be a 1:1 complex of hexetidine: beta-cyclodextrin, contains 10 mg of hexetidine in the 43 mg of complex, and therefore, a 0.1% w/v solution of hexetidine was made. The solution of the 43 mg of complex in 10 ml of water was clear.

[2] = cited from earlier work

CCCCC(CC)CN1CN(CC(CC)CCCC)CC(C)(N)C1 (centres unmarked) [hexetidine, 5-amino-1,3 bis(2-ethylhexyl)-5-methyl-hexahydropyrimidine]
solubility in water (in words) ([1]; 10 mg hexetidine, alone or as 43 mg of complex, in 10 ml of water): virtually insoluble in water; also recorded: did not dissolve
solubility (hexetidine in aqueous solution) ([1]; water, no ethanol and no surfactant): about 0 % w/v
solution of hexetidine in known in the art compositions ([2]; about 9.5% v/v ethanol and about 0.7% v/v of surfactant (e.g., TWEEN 80)): ~0.1 % w/v
solubility in ethanol ([2]; ethanol): soluble in ethanol
solubility in water ([2]; water): practically insoluble in water
